These results are taken from ChEMBL document CHEMBL3091357, “Synthesis and biological evaluation of nimesulide based new class of triazole derivatives as potential PDE4B inhibitors against cancer cells” (Bioorg Med Chem Lett, 2013).

Experiment [1] concerns the target T1, 3',5'-cyclic-AMP phosphodiesterase 4B (Homo sapiens, UniProt Q07343). The experiment can be described thus: Inhibition of recombinant His-tagged PDE4B1 (unknown origin) expressed in insect Sf9 cells using cAMP as substrate at 30 uM preincubated for 15 mins followed by substrate addition measured after 1 hr by luminescence assay relative to control.
For experiment [2], the system named is HCT-15. The experiment can be described thus: Cytotoxicity against human HCT15 cells assessed as cell death at 25 ug/mL after 48 hrs by MTT assay relative to control. Type of experiment: functional. The conditions noted are these: HCT-15, 48 h. (Tetrazolium dyes change colour on reduction, which living cells bring about.)
Experiment [3] deals with HCT-15. The experiment can be described thus: Cytotoxicity against human HCT15 cells assessed as cell death at 20 ug/mL after 48 hrs by MTT assay relative to control. The conditions noted are these: HCT-15, 48 h. The class given is functional.
Experiment [4] deals with HCT-15. In words: Cytotoxicity against human HCT15 cells assessed as cell death at 15 ug/mL after 48 hrs by MTT assay relative to control. The following applies: HCT-15, 48 h. Type of experiment: functional.
Experiment [5] concerns HCT-15. The experiment can be described thus: Cytotoxicity against human HCT15 cells assessed as cell death at 5 ug/mL after 48 hrs by MTT assay relative to control. The class given is functional. The conditions noted are these: HCT-15, 48 h.
Experiment [6] relates to HCT-15. The experiment can be described thus: Cytotoxicity against human HCT15 cells assessed as cell death at 10 ug/mL after 48 hrs by MTT assay relative to control. Type of experiment: functional. The conditions noted are these: HCT-15, 48 h.
In experiment [7] the target is T1, 3',5'-cyclic-AMP phosphodiesterase 4B. In words: Inhibition of recombinant His-tagged PDE4B1 (unknown origin) expressed in insect Sf9 cells using cAMP as substrate preincubated for 15 mins followed by substrate addition measured after 1 hr by luminescence assay.
The test system of experiment [8] is HCT-15. The experiment can be described thus: Cytotoxicity against human HCT15 cells assessed as cell death after 48 hrs by MTT assay. The class given is functional, cell-based. The conditions noted are these: HCT-15, 48 h.

Activity calls are given as the source filed them. No cut-off for these calls is given here.

A word on the inhibition: it is the drop in the measured response relative to a control, in per cent. As usually defined, the mortality is the percentage killed. One may read the IC50 as the concentration needed to halve the response being measured.

T1 sequence (Q07343 whole entry): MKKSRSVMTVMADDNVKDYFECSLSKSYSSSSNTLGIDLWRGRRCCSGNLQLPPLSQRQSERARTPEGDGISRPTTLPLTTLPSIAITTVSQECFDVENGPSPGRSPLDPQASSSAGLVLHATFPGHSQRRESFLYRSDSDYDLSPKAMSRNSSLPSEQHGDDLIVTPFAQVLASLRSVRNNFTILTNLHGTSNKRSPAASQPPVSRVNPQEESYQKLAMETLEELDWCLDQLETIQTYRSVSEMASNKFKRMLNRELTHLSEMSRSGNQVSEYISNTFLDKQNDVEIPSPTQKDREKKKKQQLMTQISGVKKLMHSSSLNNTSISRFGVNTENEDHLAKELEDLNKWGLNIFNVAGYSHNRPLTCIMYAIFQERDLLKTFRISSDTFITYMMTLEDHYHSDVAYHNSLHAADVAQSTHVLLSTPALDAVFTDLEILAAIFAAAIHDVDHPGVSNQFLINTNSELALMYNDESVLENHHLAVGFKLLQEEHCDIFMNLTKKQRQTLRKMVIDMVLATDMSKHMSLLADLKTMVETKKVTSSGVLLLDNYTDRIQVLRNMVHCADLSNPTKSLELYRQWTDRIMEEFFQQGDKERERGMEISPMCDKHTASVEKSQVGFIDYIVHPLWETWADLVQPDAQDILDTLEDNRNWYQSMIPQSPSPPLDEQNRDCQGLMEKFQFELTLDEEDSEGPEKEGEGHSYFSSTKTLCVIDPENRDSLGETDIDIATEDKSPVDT

Regarding `COc1ccc(C2CNC(=O)C2)cc1OC1CCCC1` (stereo unspecified), the inhibition in experiment [1] was determined as 94.1%.

Take `CS(=O)(=O)Nc1ccc([N+](=O)[O-])cc1Oc1ccccc1`: the inhibition result in experiment [1] is “inactive”.

For the compound `CS(=O)(=O)Nc1ccc(NC(=O)Cn2cc(COc3ccccc3)nn2)cc1Oc1ccccc1`, in experiment [1], the inhibition is 51.2%.

`CS(=O)(=O)Nc1ccc(NC(=O)Cn2cc(COc3ccc([N+](=O)[O-])cc3)nn2)cc1Oc1ccccc1`: the inhibition in experiment [1] was found to be 47.1%.

Take `CS(=O)(=O)Nc1ccc(NC(=O)Cn2cc(COc3ccccc3Cl)nn2)cc1Oc1ccccc1`: the inhibition in experiment [1] amounted to 42.5%.

For the compound `CS(=O)(=O)Nc1ccc(NC(=O)Cn2cc(COc3ccc4ccccc4c3)nn2)cc1Oc1ccccc1`, the inhibition in experiment [1] amounted to 59.7%. For the same compound, in the experiment with HCT-15 [2], the mortality at 25 µg/mL is 33.6%. For the same compound, in the experiment on HCT-15 [3], the mortality at 20 µg/mL worked out at 25.3%. In addition, the mortality at 15 µg/mL in the experiment on HCT-15 [4] was 21.1%. The mortality at 5 µg/mL with HCT-15 [5] is 10.6%. In the experiment on HCT-15 [6], the mortality at 10 µg/mL was 14.3%.

In the case of `CS(=O)(=O)Nc1ccc(NC(=O)Cn2cc(COc3ccc(Cl)cc3)nn2)cc1Oc1ccccc1`, the inhibition in experiment [1] came to 51.3%.

Regarding `CS(=O)(=O)Nc1ccc(NC(=O)Cn2cc(-c3ccccc3)nn2)cc1Oc1ccccc1`, the figures for the inhibition in experiment [1] and in experiment [7] were 64.1% and “Dose-dependent effect”, respectively. Moreover, the results for the IC50 (in experiment [7]; in the experiment on HCT-15 [8]) were 4.92 µM and 22.4 µg/mL, respectively. In the experiment on HCT-15 [2], the mortality at 25 µg/mL stood at 60.1%. The mortality at 20 µg/mL with HCT-15 [3] was found to be 42.7%. Also, the mortality at 15 µg/mL in the experiment with HCT-15 [4] was found to be 31%. In the experiment with HCT-15 [5], the mortality at 5 µg/mL stood at 10.8%. In addition, the mortality at 10 µg/mL in the experiment on HCT-15 [6] was 15.2%.

As for `Cc1cc(OCc2cn(CC(=O)Nc3ccc(NS(C)(=O)=O)c(Oc4ccccc4)c3)nn2)ccc1Cl`, in experiment [1], the inhibition was determined as 32.9%.

As for `COc1cccc2c1C(=O)c1c(O)c3c(c(O)c1C2=O)C[C@@](O)(C(=O)CO)C[C@@H]3O[C@H]1C[C@H](N)[C@H](O)[C@H](C)O1` [DOXORUBICIN], the IC50 with HCT-15 [8] is 90 nM.

`Cc1ccc(OCc2cn(CC(=O)Nc3ccc(NS(C)(=O)=O)c(Oc4ccccc4)c3)nn2)cc1`: the inhibition in experiment [1] amounted to 56.7%.

Regarding `Cc1ccc(-c2cn(CC(=O)Nc3ccc(NS(C)(=O)=O)c(Oc4ccccc4)c3)nn2)cc1`, in experiment [1], the inhibition was 36%. Moreover, in the experiment with HCT-15 [2], the mortality at 25 µg/mL worked out at 53%. Also, the mortality at 20 µg/mL with HCT-15 [3] was found to be 49.6%. Also, in the experiment on HCT-15 [4], the mortality at 15 µg/mL was 45.6%. Besides, the mortality at 5 µg/mL in the experiment with HCT-15 [5] is 37%. The mortality at 10 µg/mL in the experiment on HCT-15 [6] came to 40.2%. Besides, the IC50 with HCT-15 [8] turned out to be 21 µg/mL.
